Measured values reported in article PMC7762503, “Pathomechanism characterization and potential therapeutics identification for SCA3 targeting neuroinflammation” (Aging (Albany NY), 2020).

Tests used:
[1] = MTT cytotoxicity assay, HMC3 cells; assay type: cell-based; conditions: human, 0.1−100 μM, 28 h treatment, read-out: IC50 (cytotoxicity, MTT viability)
Protocol: (§1) To evaluate compound cytotoxicity, 2 × 10^4 (HMC3) or 1 × 10^4 (SH-SY5Y) cells were plated on 48-well dishes, grown for 20 h, and treated with the tested compounds (0.1−100 μM). After 28 h (HMC3) or 6 days (SH-SY5Y), 20 μl of 3-(4,5-dimethylthiazol-2-yl)-2,5-diphenyltetrazolium bromide (MTT) (5 mg/ml) was added to the cells at 37°C for 3 h. 200 μl of lysis buffer (10% Triton X-100, 0.1 N HCl, 18% isopropanol) was then added to dishes and the absorbance of the insoluble purple formazan product at OD 570 nm was read by a FLx800 fluorescence microplate spectrophotometer (Bio-Tek, Winooski, VT, USA). The IC50 of the tested compounds were calculated using the interpolation method.

[2] = MTT cytotoxicity assay, SH-SY5Y cells; assay type: cell-based; conditions: human, 0.1−100 μM, 6 days treatment, read-out: IC50 (cytotoxicity, MTT viability)
Protocol: as §1

[3] = DPPH radical-scavenging assay; conditions: 200 μM DPPH, compounds 10–160 μM, 30 min, room temperature
Protocol: The DPPH radical-scavenging activity was measured in an ethanol mixture containing 200 μM DPPH (Sigma-Aldrich) radical solution and the tested compounds (10–160 μM). The solution was vortexed and incubated for 30 min at room temperature. The scavenging capacity was measured by monitoring the decrease in absorbance at 517 nm with a microplate spectrophotometer (Multiskan GO, Thermo Fisher Scientific). The half maximal effective concentrations (EC50) for inhibition of the formation of DPPH radicals were calculated using the interpolation method.

ATXN3/Q75-GFP [4] = test: High content polyQ aggregation analysis, ATXN3/Q75-GFP SH-SY5Y cells; assay type: cell-based, human; conditions: 10 μM compound, ATXN3/Q75-GFP-expressing cells; for reduction of aggregation: vs untreated 2.8%
Protocol: (§2) ATXN3/Q75-GFP SH-SY5Y cells were plated on 24-well (1 × 10^4/well) dishes, and retinoic acid (10 μM; Sigma-Aldrich) was added to initiate neuronal differentiation. On the second day, cells were treated with the tested compound (10 μM) for 8 h before ATXN3-GFP expression induction by adding doxycycline (5 μg/ml). For comparison, cells without inducing ATXN3/Q75-GFP expression were included. The cells were kept in the medium containing retinoic acid, doxycycline and test compound for 6 days. For the cells with inflammatory stimulation, HMC3 conditioned medium with (CM/+IFN-γ) or without (CM/–IFN-γ) IFN-γ stimulation was added at a 1:1 ratio in the last two days. On the eighth day, cells were stained with Hoechst 33342 (0.1 μg/ml; Sigma-Aldrich) for 30 min, and images of the cells were automatically obtained using an ImageXpressMICRO high content analysis (HCA) system (Molecular Devices, San Jose, CA, USA). Excitation/emission filters were at 482/536 and 377/447 nm for enhanced GFP and Hoechst 33342, respectively. Aggregation was determined by Transfluor technology based on GFP fluorescence intensity. Neurite length, process and branch of ATXN3/Q75-GFP-expressing cells were analyzed by using Metamorph microscopy automation and image analysis software (neurite outgrowth application module, Molecular Devices). In addition, cells were fixed, permeated and stained with neuronal class III β-tubulin (TUBB3) antibody (1:1000; Covance, Princeton, NJ, USA), followed by anti-rabbit Alexa Fluor ®555 antibody (1:1000; Thermo Fisher Scientific) for neurite outgrowth analysis. To quantify neurite outgrowth, microscopic images were segmented with multi-colored mask to assign each outgrowth to a cell body for quantification. In general, 10^4 cells in each biological replicate were analyzed.

[5] = tested on: ATXN3/Q75-GFP SH-SY5Y cells; test: Neurite outgrowth analysis, ATXN3/Q75-GFP SH-SY5Y cells; assay type: cell-based, human; conditions: 10 μM compound, ATXN3/Q75-GFP-expressing cells; for neurite branch: untreated 1.0; for neurite process: untreated 1.8; for neurite length: untreated 23.6 μm
Protocol: as §2

[6] = tested on: ATXN3/Q75-GFP SH-SY5Y cells; test: Neurite outgrowth analysis, CM/+IFN-γ-inflamed ATXN3/Q75-GFP SH-SY5Y cells; assay type: cell-based, human; conditions: 10 μM compound; for neurite process: untreated 1.4; for neurite length: untreated 14.4 μm
Protocol: as §2

ATXN3/Q75-GFP [7] = test: Western blot of soluble ATXN3/Q75-GFP protein; assay type: cell-based, human; conditions: 10 μM compound; without compound = 100%
Protocol: Cells were lysed using buffer (50 mM Tris-HCl pH8.0, 0.5% sodium deoxycholate, 0.1% SDS, 150 mM NaCl, 2 mM EDTA, 50 mM NaF and 1% NP40) containing the protease inhibitor cocktail (Sigma-Aldrich). After sonication, the lysates were centrifuged at 12,000 × g for 10 min at 4°C. Protein concentrations were determined using a protein assay kit (Bio-Rad, Hercules, CA, USA), with albumin as standards. Total soluble proteins (20 μg) were electrophoresed on 10% SDS-polyacrylamide gel and transferred onto polyvinylidene difluoride membrane (Sigma-Aldrich) by reverse electrophoresis. After being blocked, the membrane was stained with ATXN3 (1:1000; GeneTex, Irvive, CA, USA), GFP (1:1000; Santa Cruz Biotechnology, Santa Cruz, CA, USA), CD68 (1:1000; Cell Signaling), IκBα (1:1000; Cell Signaling), p-IκBα (S32/36) (1:1000; Cell Signaling), P65 (1:1000; Cell Signaling), p-P65 (S536) (1:1000; Cell Signaling), JNK (1:1000; Cell Signaling), p-JNK (T183/Y185) (1:500; Cell Signaling), JUN, p-JUN (S63) (1:1000; Cell Signaling), P38 (1:1000; Cell Signaling), p-P38 (T180/Y182) (1:1000; Cell Signaling), STAT1 (1:1000; Cell Signaling), p-STAT1 (S727) (1:1000; Cell Signaling), or GAPDH (1:5000; MDBio Inc., Taipei, Taiwan) primary antibody at room temperature 2 h or 4°C overnight. The immune complexes were detected using horseradish peroxidase (HRP)-conjugated goat anti-mouse or goat anti-rabbit IgG antibody (1:5000; GeneTex) and chemiluminescent HRP substrate (Millipore, Billerica, MA, USA).

SMILES: CCCCC/C=C\C/C=C\C/C=C\C/C=C\CCCC(=O)Nc1ccc(O)cc1 [AM404, reference compound]
- IC50 at 28 h [1]: 84 µM
- IC50 at 6 days [2]: 49 µM
- EC50 [3]: 141 µM
- polyQ aggregation (cells with aggregates) (ATXN3/Q75-GFP [4]; untreated 2.8%): not reducing ATXN3/Q75 aggregation
- neurite branch [5]: 1.4
- neurite process [5]: 2.2
- neurite length [5]: 30.8 μm
- neurite process [6]: 1.6
- neurite length [6]: 17.3–18.0 μm

SMILES: O=c1c(O)c(-c2ccc(O)cc2)oc2cc(O)cc(O)c12 [Kaempferol, kaempferol, reference compound]
- EC50 [3]: 27 µM

SMILES: O=C(c1ccccc1)c1cc2c(O)cccc2oc1=O [LM-031, 3-benzoyl-5-hydroxychromen-2-one]
- IC50 at 28 h [1]: > 100 µM
- IC50 at 6 days [2]: > 100 µM
- EC50 [3]: 100 µM
- reduction of aggregation (ATXN3/Q75-GFP [4]): 12–25%
- soluble ATXN3/Q75-GFP protein (Western blot, GFP antibody) (ATXN3/Q75-GFP [7]): 144−173%
- neurite branch [5]: 1.2
- neurite process [5]: 2.0–2.1
- neurite length [5]: 26.9–27.2 μm
- neurite branch ([6]; untreated 0.6): 0.8
- neurite process [6]: 1.6
- neurite length [6]: 17.3–18.0 μm

SMILES: CC(=O)/C(=C/c1ccccc1[N+](=O)[O-])Cc1c[nH]c2ccccc12 [NC009-1]
- IC50 at 28 h [1]: > 100 µM
- IC50 at 6 days [2]: 52 µM
- DPPH scavenging activity EC50 [3]: no detectable DPPH-scavenging activity
- reduction of aggregation (ATXN3/Q75-GFP [4]): 12–25%
- soluble ATXN3/Q75-GFP protein (Western blot, GFP antibody) (ATXN3/Q75-GFP [7]): 144−173%
- neurite branch [5]: 1.2
- neurite process [5]: 2.0–2.1
- neurite length [5]: 26.9–27.2 μm
- neurite process [6]: 1.6
- neurite length [6]: 17.3–18.0 μm

SMILES: O=[N+]([O-])c1cccc2nc(/C=C/c3cc4ccccc4nc3N3CCOCC3)ccc12 [VB-037]
- IC50 at 28 h [1]: > 100 µM
- IC50 at 6 days [2]: 78 µM
- DPPH scavenging activity EC50 [3]: no detectable DPPH-scavenging activity
- reduction of aggregation (ATXN3/Q75-GFP [4]): 12–25%
- soluble ATXN3/Q75-GFP protein (Western blot, GFP antibody) (ATXN3/Q75-GFP [7]): 144−173%
- neurite branch [5]: 1.2
- neurite process [5]: 2.0–2.1
- neurite length [5]: 26.9–27.2 μm
